Measured values from ChEMBL document CHEMBL3124873, “cis-1-Oxo-heterocyclyl-4-amido cyclohexane derivatives as NPY5 receptor antagonists” (Bioorg Med Chem Lett, 2014).
Values after ≈ are worked out from the molar mass of the structure shown.

How the values were obtained:
[1] = test system: Liver microsome; assay: Intrinsic clearance in human pooled liver microsomes at 1 uM by LC/MS analysis; assay type: ADME
[2] = test system: Liver microsome; assay: Intrinsic clearance in rat pooled liver microsomes at 1 uM by LC/MS analysis; assay type: ADME
[3] = Solubility of the compound at pH 7.4 by classic shake flask method; assay type: physicochemical; details: buffer
[4] = molecular target: T1, Neuropeptide Y receptor type 5 (Homo sapiens, UniProt Q15761); assay: Displacement of [125I]PYY from human NPY5 receptor transfected in LM(tk-) cell membranes after 120 mins by solid scintillation counting
T1 sequence (Q15761 whole entry): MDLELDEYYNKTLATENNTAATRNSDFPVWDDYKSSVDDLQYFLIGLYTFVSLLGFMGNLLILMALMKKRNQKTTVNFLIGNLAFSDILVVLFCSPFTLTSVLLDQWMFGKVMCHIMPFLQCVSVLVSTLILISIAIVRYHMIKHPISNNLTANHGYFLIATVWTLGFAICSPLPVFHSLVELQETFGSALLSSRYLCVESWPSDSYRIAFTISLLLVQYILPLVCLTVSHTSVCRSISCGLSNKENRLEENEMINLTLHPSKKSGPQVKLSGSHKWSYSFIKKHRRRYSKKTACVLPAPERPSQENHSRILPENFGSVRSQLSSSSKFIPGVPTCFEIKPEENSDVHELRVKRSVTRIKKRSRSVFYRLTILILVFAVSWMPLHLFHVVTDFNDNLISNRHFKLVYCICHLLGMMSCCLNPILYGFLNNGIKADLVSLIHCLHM

[5] = Ratio of drug level in brain to plasma in femoral artery cannulated Sprague-Dawley rat at 10 mg/kg, po after 1 hr by LC/MS/MS analysis; assay type: ADME, organism-based; design: dose 10 mg/kg, route oral; details: read-out: BPR
[6] = Plasma concentration in femoral artery cannulated Sprague-Dawley rat at 10 mg/kg, po after 1 hr by LC/MS/MS analysis; assay type: ADME, organism-based; design: dose 10 mg/kg, route oral
[7] = Drug uptake in femoral artery cannulated Sprague-Dawley rat brain at 10 mg/kg, po after 1 hr by LC/MS/MS analysis; assay type: ADME, organism-based; design: dose 10 mg/kg, route oral; details: read-out: Drug uptake
[8] = Oral bioavailability in Sprague-Dawley rat at 2 mg/kg by LC/MS analysis; assay type: ADME, organism-based; details: in vivo
[9] = test system: Rattus norvegicus; assay: AUC (0 to infinity) in Sprague-Dawley rat at 2 mg/kg, po by LC/MS analysis; assay type: ADME, organism-based, Plasma; design: time infinity, dose 2 mg/kg, route oral; details: in vivo
[10] = Clearance in Sprague-Dawley rat at 1 mg/kg, iv and 2 mg/kg, po by LC/MS analysis; assay type: ADME, organism-based; details: in vivo
[11] = Volume of distribution at steady state in Sprague-Dawley rat at 1 mg/kg, iv and 2 mg/kg, po by LC/MS analysis; assay type: ADME, organism-based; details: in vivo, read-out: Vdss
[12] = Half life in Sprague-Dawley rat at 1 mg/kg, iv and 2 mg/kg, po by LC/MS analysis; assay type: ADME, organism-based; details: in vivo

| CLH [1] [L/min] | CLH [2] [mL/min] | solubility thermodynamic [3] [µg/mL] | Ki [4] [nM] | Kp at 1 h [5] | concentration at 1 h [6] [nM] | concentration at 1 h [7] [nM] | bioavailability [8] [%] | AUC [9] [ng·h/mL] | clearance [10] [mL/min/kg] | Vd [11] [L/kg] | half-life [12] [h] | SMILES |
| --- | --- | --- | --- | --- | --- | --- | --- | --- | --- | --- | --- | --- |
| 1.1 | 19 | 5.4 (≈ 12.6 µM) | – | – | – | – | – | – | – | – | – | CN1CCCN([C@H]2CC[C@@H](C(=O)Nc3ccc(-c4cc(F)cc(F)c4)cn3)CC2)C1=O |
| 1.6 | 17 | 1.6 (≈ 3.73 µM) | 10 | – | – | – | – | – | – | – | – | CCN1CCN([C@H]2CC[C@@H](C(=O)Nc3ccc(-c4cc(F)cc(F)c4)cn3)CC2)C1=O |
| 0.9 | 9.5 | – | 6 | – | – | – | – | – | – | – | – | O=C1CCCN1[C@H]1CC[C@@H](C(=O)Nc2cnc(-c3cc(F)cc(F)c3)cn2)CC1 |
| 1.7 | 37 | 4.5 (≈ 11.2 µM) | 5 | 0.2 | 6800 | 1400 | – | – | – | – | – | O=C1NCCN1[C@H]1CC[C@@H](C(=O)Nc2ccc(-c3cc(F)cc(F)c3)cn2)CC1 |
| – | – | – | 2 | – | – | – | – | – | – | – | – | O=C1CCCCN1[C@H]1CC[C@@H](C(=O)Nc2ccc(-c3cc(F)cc(F)c3)cn2)CC1 |
| – | – | – | 41 | – | – | – | – | – | – | – | – | CC(C)N1CCN([C@H]2CC[C@@H](C(=O)Nc3ccc(-c4cc(F)cc(F)c4)cn3)CC2)C1=O |
| – | – | – | > 10000 | – | – | – | – | – | – | – | – | CN(c1ccc(-c2cc(F)cc(F)c2)cn1)C(=O)[C@H]1CC[C@@H](N2CCCC2=O)CC1 |
| 1 | 12 | 0.7 (≈ 1.75 µM) | 8 | 1 | 2800 | 2800 | 110 | 4300 | 8.67 | 3.2 | 4.4 | O=C1CCCN1[C@H]1CC[C@@H](C(=O)Nc2ccc(-c3cc(F)cc(F)c3)cn2)CC1 |
| 0.4 | 9.5 | 4 (≈ 9.96 µM) | – | 0.5 | 3000 | 1500 | 83 | 2000 | 14.2 | 3.4 | 2.8 | O=C1OCCN1[C@H]1CC[C@@H](C(=O)Nc2ccc(-c3cc(F)cc(F)c3)cn2)CC1 |
| 1.1 | 15 | – | 7 | – | – | – | – | – | – | – | – | C[C@H]1CN([C@H]2CC[C@@H](C(=O)Nc3ccc(-c4cc(F)cc(F)c4)cn3)CC2)C(=O)O1 |
| 0.9 | 7 | – | 3 | – | – | – | – | – | – | – | – | C[C@@H]1CN([C@H]2CC[C@@H](C(=O)Nc3ccc(-c4cc(F)cc(F)c4)cn3)CC2)C(=O)O1 |
| 0.8 | 8.8 | 1.1 (≈ 2.65 µM) | 5 | 0.6 | 5000 | 3100 | 110 | 4100 | 9.5 | 2.8 | 3.5 | CN1CCN([C@H]2CC[C@@H](C(=O)Nc3ccc(-c4cc(F)cc(F)c4)cn3)CC2)C1=O |
| 1.1 | 18 | 1.3 (≈ 3.14 µM) | – | – | – | – | – | – | – | – | – | O=C1NCCCN1[C@H]1CC[C@@H](C(=O)Nc2ccc(-c3cc(F)cc(F)c3)cn2)CC1 |
| 1 | 8.4 | – | 9 | – | – | – | – | – | – | – | – | O=C1N(C2CC2)CCN1[C@H]1CC[C@@H](C(=O)Nc2ccc(-c3cc(F)cc(F)c3)cn2)CC1 |
| 3.9 | 25 | – | 4 | – | – | – | – | – | – | – | – | CC(C)(C)C1CN([C@H]2CC[C@@H](C(=O)Nc3ccc(-c4cc(F)cc(F)c4)cn3)CC2)C(=O)O1 (mixture of isomers) |
| 0.7 | 31 | 38 (≈ 94.9 µM) | 5 | 0.14 | 2800 | 380 | – | – | – | – | – | O=C1CCCN1[C@H]1CC[C@@H](C(=O)Nc2ncc(-c3cc(F)cc(F)c3)cn2)CC1 |
